# Experimental data reported in ChEMBL document CHEMBL5579899, “Discovery and In Vivo Exploration of 1,3,4-Oxadiazole and α-Fluoroacrylate Containing IL-17 Inhibitors” (J Med Chem, 2024).
# pIC50: −log10 of the molar value.
# How the values were obtained:
# [1] = Volume of distribution at steady state in C57BL/6 mouse at 1 mg/kg,iv or 3 mg/kg,po measured upto 24 hrs by LC-MS/MS analysis; format: ADME, organism-based; conditions: in vivo, read-out: Vdss
# [2] = Toxicity in dog at >=200 mg/kg,administrated for 2 weeks; format: organism-based, Canis lupus familiaris; conditions: in vivo, 336 h
# [3] = AUC in Sprague-Dawley rat at 3 mg/kg,po measured upto 24 hrs by LC-MS/MS analysis; format: ADME, organism-based; conditions: in vivo, po, 3 mg/kg, 24 h
# [4] = Toxicity in dog assessed as morphological change in liver at 200 mg/kg administrated for 2 weeks; format: organism-based, Canis lupus familiaris; conditions: in vivo, 336 h
# [5] = Toxicity in rat assessed as maximal tolerated dose administrated for 2 weeks; conditions: in vivo
# [6] = Metabolic stability in dog liver microsomes assessed as intrinsic clearance; format: ADME, Canis lupus familiaris, Microsome; conditions: read-out: CLH
# [7] = AUClast in C57BL/6 mouse at 3 mg/kg,po measured upto 24 hrs by LC-MS/MS analysis; format: ADME, organism-based; conditions: in vivo
# [8] = Inhibition of biotinylated human IL-17A/AF647-labeled human IL-17RA protein-protein interaction preincubated for 30 mins with compound followed by addition of AF647-labeled human IL-17RA incubated for 90 min by TR-FRET assay
# [9] = Plasma protein binding in human assessed as unbound fraction; format: ADME, cell-free
# [10] = AUClast in Sprague-Dawley rat at 3 mg/kg,po measured upto 24 hrs by LC-MS/MS analysis; format: ADME, organism-based; conditions: in vivo
# [11] = Lipophilicity, logD of compound at pH 7.4; format: physicochemical; conditions: buffer
# [12] = Half life in C57BL/6 mouse at 1 mg/kg,iv or 3 mg/kg,po measured upto 24 hrs by LC-MS/MS analysis; format: ADME, organism-based; conditions: in vivo
# [13] = Metabolic stability in human hepatocyte assessed as clearance measured per million cells; format: ADME, cell-based; conditions: hepatocytes
# [14] = Testicular toxicity in dog >=75 mg/kg administration for 2 weeks; format: organism-based, Canis lupus familiaris; conditions: in vivo, 336 h
# [15] = Metabolic stability in mouse liver microsomes assessed as intrinsic clearance; format: ADME, Microsome; conditions: read-out: CLH
# [16] = Plasma protein binding in mouse assessed as unbound fraction; format: ADME, cell-free
# [17] = AUClast in Beagle dog at 0.3 mg/kg,po measured upto 24 hrs by LC-MS/MS analysis; format: ADME, organism-based, Canis lupus familiaris; conditions: in vivo
# [18] = Inhibition of CXCL1 production in IL-17A stimulated rat IEC-6 cells; format: functional
# [19] = Metabolic stability in human liver microsomes assessed as intrinsic clearance; format: ADME, Microsome; conditions: read-out: CLH
# [20] = tested on: Rattus norvegicus; assay: Antiarthritic activity in antigen-induced arthritis Lewis rat model assessed as reduction in knee swelling at po bid administrated for 4 days; format: functional, organism-based; conditions: time 4.0 day
# [21] = Toxicity in dog assessed as increase in serum liver enzyme at 200 mg/kg administrated for 2 weeks; format: organism-based, Canis lupus familiaris; conditions: in vivo, 336 h
# [22] = Half life in Sprague-Dawley rat at 1 mg/kg,iv or 3 mg/kg,po measured upto 24 hrs by LC-MS/MS analysis; format: ADME, organism-based; conditions: in vivo
# [23] = GSH reactivity in aqueous buffer at pH 7.4 assessed as GSH-adduct formation by measuring half life; format: physicochemical
# [24] = Oral bioavailability in C57BL/6 mouse at 3 mg/kg measured upto 24 hrs by LC-MS/MS analysis; format: ADME, organism-based; conditions: in vivo
# [25] = tested on: Rattus norvegicus; assay: Antiarthritic activity in antigen-induced arthritis Lewis rat model assessed as reduction in knee swelling at 1 mg/kg,po bid administrated for 4 days; format: functional; parameters: scale not given: the % may be the effect or the level left; conditions: time 4 day
# [26] = Metabolic stability in rat liver microsomes assessed as intrinsic clearance; format: ADME, Microsome; conditions: read-out: CLH
# [27] = Oral bioavailability in Sprague-Dawley rat at 3 mg/kg measured upto 24 hrs by LC-MS/MS analysis; format: ADME, organism-based; conditions: in vivo, po, 3 mg/kg, 24 h
# [28] = Inhibition of IL-6 production in IL-17/TNF-alpha stimulated human NHDF cells incubated for 24 hrs by ELISA; format: functional, cell-based
# [29] = Volume of distribution at steady state in Beagle dog at 0.1 mg/kg,iv or 0.3 mg/kg,po measured upto 24 hrs by LC-MS/MS analysis; format: ADME, organism-based, Canis lupus familiaris; conditions: in vivo, read-out: Vdss
# [30] = Inhibition of CXCL1 production in IL-17A stimulated rat IEC-6 cells assessed as fold change in inhibition of CXCL1 release; format: functional
# [31] = Toxicity in dog assessed as maximal tolerated dose administrated for 2 weeks; parameters: species or system Canis lupus familiaris; conditions: in vivo
# [32] = Plasma protein binding in rat assessed as unbound fraction; format: ADME, cell-free
# [33] = tested on: Rattus norvegicus; assay: Antiarthritic activity in antigen-induced arthritis Lewis rat model assessed as reduction in knee swelling at 30 mg/kg,po bid administrated for 4 days; format: functional; parameters: scale not given: the % may be the effect or the level left; conditions: time 4 day
# [34] = Apparent permeability coefficient of the compound across apical to basolateral side in dog MDCK cells by high-throughput analysis; format: ADME, cell-based, Canis lupus familiaris
# [35] = Equilibrium solubility of compound […] at pH 6.8 by high-throughput analysis; format: physicochemical
# [36] = Plasma protein binding in dog assessed as unbound fraction; format: ADME, cell-free, Canis lupus familiaris
# [37] = molecular target: T1, Solute carrier organic anion transporter family member 1B1 (Homo sapiens, UniProt Q9Y6L6); assay: Inhibition of OATP1B1 (unknown origin); format: toxicity
# T1 sequence (Q9Y6L6 whole entry): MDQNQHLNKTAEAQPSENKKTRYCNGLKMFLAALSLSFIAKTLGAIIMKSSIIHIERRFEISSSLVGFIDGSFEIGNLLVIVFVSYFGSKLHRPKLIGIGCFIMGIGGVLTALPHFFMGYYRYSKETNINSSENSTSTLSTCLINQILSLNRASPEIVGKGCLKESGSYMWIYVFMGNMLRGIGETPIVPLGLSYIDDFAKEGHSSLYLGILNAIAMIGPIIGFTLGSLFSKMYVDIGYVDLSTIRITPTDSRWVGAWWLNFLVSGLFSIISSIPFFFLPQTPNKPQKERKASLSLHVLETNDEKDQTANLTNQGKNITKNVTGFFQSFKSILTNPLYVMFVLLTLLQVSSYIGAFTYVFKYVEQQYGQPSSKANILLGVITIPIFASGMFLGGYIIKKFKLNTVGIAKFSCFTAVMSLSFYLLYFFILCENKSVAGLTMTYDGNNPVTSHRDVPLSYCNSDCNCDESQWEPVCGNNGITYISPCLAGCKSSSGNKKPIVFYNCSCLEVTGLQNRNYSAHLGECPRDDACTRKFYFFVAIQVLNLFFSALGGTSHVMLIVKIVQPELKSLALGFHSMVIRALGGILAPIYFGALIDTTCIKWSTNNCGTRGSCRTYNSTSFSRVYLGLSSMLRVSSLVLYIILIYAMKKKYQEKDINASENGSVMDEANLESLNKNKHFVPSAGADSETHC
# [38] = Volume of distribution at steady state in Sprague-Dawley rat at 1 mg/kg,iv or 3 mg/kg,po measured upto 24 hrs by LC-MS/MS analysis; format: ADME, organism-based; conditions: in vivo, read-out: Vdss
# [39] = molecular target: T2, Muscarinic acetylcholine receptor M2 (Homo sapiens, UniProt P08172); assay: Inhibition of muscarinic M2 receptor (unknown origin); format: toxicity
# T2 sequence (P08172 whole entry): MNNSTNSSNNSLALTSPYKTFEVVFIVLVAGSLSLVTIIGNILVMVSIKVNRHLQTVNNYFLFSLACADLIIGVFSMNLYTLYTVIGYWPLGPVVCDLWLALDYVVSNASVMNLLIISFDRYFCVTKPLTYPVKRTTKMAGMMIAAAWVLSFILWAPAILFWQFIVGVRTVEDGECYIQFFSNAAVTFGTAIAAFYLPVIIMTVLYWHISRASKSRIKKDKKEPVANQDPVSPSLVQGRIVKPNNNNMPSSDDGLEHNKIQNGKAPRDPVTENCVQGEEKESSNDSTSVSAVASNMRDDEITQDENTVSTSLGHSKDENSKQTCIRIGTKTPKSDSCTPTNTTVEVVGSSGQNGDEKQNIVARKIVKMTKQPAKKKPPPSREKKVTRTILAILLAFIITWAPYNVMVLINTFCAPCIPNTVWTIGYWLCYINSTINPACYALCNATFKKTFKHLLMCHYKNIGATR
# [40] = Testicular toxicity in rat at >=100 mg/kg administration for 2 weeks; format: organism-based; conditions: in vivo, 336 h
# [41] = Metabolic stability in dog hepatocyte assessed as clearance measured per million cells; format: ADME, cell-based, Canis lupus familiaris; conditions: hepatocytes
# [42] = Oral bioavailability in Beagle dog at 0.3 mg/kg measured upto 24 hrs by LC-MS/MS analysis; format: ADME, organism-based, Canis lupus familiaris; conditions: in vivo
# [43] = molecular target: Bile salt export pump (Homo sapiens, UniProt O95342); assay: Inhibition of BSEP (unknown origin); format: toxicity
# [44] = Metabolic stability in rat hepatocyte assessed as clearance measured per million cells; format: ADME, cell-based; conditions: hepatocytes
# [45] = Half life in Beagle dog at 0.1 mg/kg,iv or 0.3 mg/kg,po measured upto 24 hrs by LC-MS/MS analysis; format: ADME, organism-based, Canis lupus familiaris; conditions: in vivo
# Chain of Bile salt export pump (O95342 whole entry): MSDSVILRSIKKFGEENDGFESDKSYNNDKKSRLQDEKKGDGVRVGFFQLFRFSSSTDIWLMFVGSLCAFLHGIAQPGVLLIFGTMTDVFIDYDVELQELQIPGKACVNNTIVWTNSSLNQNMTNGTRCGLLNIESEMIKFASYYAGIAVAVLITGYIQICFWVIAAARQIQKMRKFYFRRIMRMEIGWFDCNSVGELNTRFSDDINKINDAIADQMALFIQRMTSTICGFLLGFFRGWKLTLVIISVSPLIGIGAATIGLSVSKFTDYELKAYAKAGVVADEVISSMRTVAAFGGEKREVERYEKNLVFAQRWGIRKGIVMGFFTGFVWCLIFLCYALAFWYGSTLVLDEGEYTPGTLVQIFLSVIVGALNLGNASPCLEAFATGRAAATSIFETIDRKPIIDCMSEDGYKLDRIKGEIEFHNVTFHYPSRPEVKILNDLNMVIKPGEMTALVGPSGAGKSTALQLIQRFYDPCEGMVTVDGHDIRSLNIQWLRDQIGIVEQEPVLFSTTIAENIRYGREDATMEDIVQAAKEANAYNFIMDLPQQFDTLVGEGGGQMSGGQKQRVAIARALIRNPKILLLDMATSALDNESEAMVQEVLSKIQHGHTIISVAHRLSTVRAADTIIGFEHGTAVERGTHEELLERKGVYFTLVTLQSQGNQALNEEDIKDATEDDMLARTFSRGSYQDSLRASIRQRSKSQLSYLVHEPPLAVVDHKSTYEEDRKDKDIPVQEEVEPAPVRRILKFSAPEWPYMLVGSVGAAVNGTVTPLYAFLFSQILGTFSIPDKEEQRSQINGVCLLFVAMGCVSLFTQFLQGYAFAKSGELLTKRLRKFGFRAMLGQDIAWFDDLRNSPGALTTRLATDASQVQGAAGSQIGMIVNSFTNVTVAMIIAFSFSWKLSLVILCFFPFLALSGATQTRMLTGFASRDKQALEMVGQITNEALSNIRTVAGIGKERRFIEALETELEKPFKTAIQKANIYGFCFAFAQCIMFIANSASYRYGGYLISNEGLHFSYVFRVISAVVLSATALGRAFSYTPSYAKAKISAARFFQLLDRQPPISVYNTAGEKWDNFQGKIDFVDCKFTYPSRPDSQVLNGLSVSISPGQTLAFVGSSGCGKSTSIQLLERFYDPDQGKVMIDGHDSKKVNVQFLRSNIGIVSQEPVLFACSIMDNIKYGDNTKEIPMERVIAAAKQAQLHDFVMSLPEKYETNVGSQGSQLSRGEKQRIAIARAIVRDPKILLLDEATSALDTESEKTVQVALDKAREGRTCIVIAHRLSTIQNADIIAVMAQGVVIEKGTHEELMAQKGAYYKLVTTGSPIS
smiles,measurement,setting,value
COC[C@H](c1cnn2cc([C@@H](NC(=O)/C(F)=C\C3CC3)C3CCC(F)(F)CC3)nc2c1)N1C[C@@H](C(F)(F)F)NC1=O,Vd,[1],3 L/kg
same,Activity,[2],Non-Toxic
same,AUC,[3],24 nM·h
same,Activity,[4],Toxic
same,MTD at 336 h,[5],1000 mg/kg
same,microsomal CLint,[6],18 µL/min/mg
same,AUClast,[7],530 nM·h
same,pIC50,[8],7.89
same,fraction unbound,[9],0.094
same,AUC(0-t) at 24 h,[10],1.58 µM·h
same,logD,[11],3.8
same,half-life,[12],120 min
same,CLH,[13],58 µL
same,Activity,[14],Toxic
same,microsomal CLint,[15],25 µL/min/mg
same,fraction unbound,[16],0.048
same,AUClast,[17],4.2 µM·h
same,IC90,[18],45 nM
same,microsomal CLint,[19],58 µL/min/mg
same,Activity,[20],Dose-Dependent Effect
same,Activity,[21],Toxic
same,half-life,[22],156 min
same,t1/2,[23],> 480 min
same,F,[24],41%
same,Activity,[25],60%
same,microsomal CLint,[26],38 µL/min/mg
same,F,[27],106%
same,pIC50,[28]; 24 h,8.40
same,IC90,[28]; time 24 hrs,37 nM
same,Vd,[29],3.7 L/kg
same,fold change (FC),[30],9
same,MTD at 336 h,[31],75 mg/kg
same,fraction unbound,[32],0.075
same,Activity,[33],97%
same,Papp A→B,[34],26 ×10⁻⁶ cm/s
same,solubility,[35],150 µM
same,fraction unbound,[36],0.062
same,pIC50,[37],4.96
same,Vd,[38],4.4 L/kg
same,pIC50,[39],4.85
same,Activity,[40],Toxic
same,CLH,[41],5.1 µL
same,F,[42],94%
same,pIC50,[43],4.72
same,CLH,[44],4.2 µL
same,half-life,[45],498 min
